Each structure is given as a SMILES string.

One experiment has as its system BxPC3 cells. In words: Transcytosis transport in tumor cells. The experiment is classed as cell-based, human. The following applies: BxPC3 cells pretreated with EXO1 20 μM; serum-containing medium, with ultrasound stimulation. Here is the method:
BxPC3 cells (1×10^5 cells/mL, 1 mL) were cultured in a confocal dish for 24 h, and the culture medium was then replaced with 1 mL fresh serum-free medium. Next, the mixture of Cy5-labeled GL, LGL, PGL or LPGL liposome (equivalent to fluorescent lipids of 60 μg/mL, 20 μL) and serum-containing medium or serum-free medium was respectively added into the confocal dish, and subsequently treated with or without ultrasound stimulation (acoustic intensity: 2 W/cm^2, frequency: 3 MHz, duty cycle: 50%, duration time: 5 min). After incubation of 3 h, the dishes were washed twice with PBS. A total of 1×10^5 fresh cells in 1 mL of fresh serum-free medium was added to the dishes. The mixed cells were continuously incubated for 0 min, 30 min, and 120 min. The transcellular transport of liposome from previously added cells to newly added cells was photographed at incubation time of 0 min, 30 min, and 120 min with a CLSM using 640 nm excitation wavelength. Then the newly added cells at 120 min of incubation were washed away and collected into a centrifugal tube, and detected using flow cytometry. Meanwhile, BxPC3 cells pretreated with an exocytosis inhibitor EXO1 (20 μM) were tested using the same method to investigate the inhibition of transcellular transport.

For experiment [1], the system named is 3D multicellular tumor spheroids of BxPC3. In words: Penetration in tumor spheroids (CLSM). The experiment is classed as cell-based, human. Conditions: EXO1 20 μM pretreatment. Here is the method: The 3D multicellular tumor spheroids of BxPC3 pretreated with or without exocytosis inhibitor EXO1 (20 μM) were transferred to a confocal dish containing fresh serum-free medium. The mixture of Cy5-labeled LPGL, PGL, LGL or GL liposome (equivalent to fluorescent lipids of 60 μg/mL, 30 μL) and fresh serum-containing medium were added, and treated with ultrasound stimulation (acoustic intensity: 2 W/cm^2, frequency: 3 MHz, duty cycle: 50%, duration time: 5 min), then incubated for 6 h. After washing with PBS, images were obtained with CLSM in XYZ-3D-stack at 25-μm intervals from apex to equator.

In the case of `COC(=O)c1ccccc1NC(=O)c1ccc(F)cc1` [EXO1], the “effect on transcytosis transport of LPGL liposome” value with BxPC3 cells is on record as “could be inhibited”. For the same compound, the “effect on permeability of LPGL liposome into the 3D spheroid of BxPC3” value in experiment [1] is on record as “could significantly inhibit the permeability of LPGL liposome”.

Values taken from patent US20240094197A1, “Method for removing protein corona of the surface of nanometer particle” (ZHEJIANG UNIVERSITY, priority 2022, published 2024).
